Measured values published in patent publication US10183021B2, “sGC stimulators” (Ironwood Pharmaceuticals, Inc., priority 2013, dated 2019).
Read-outs that look alike come from different tables or passages of the source.

Legend:
[1] = target: T1, soluble guanylate cyclase (sGC) (Homo sapiens (Human), UniProt Q02108+Q02153); assay: sGC-HEK-cGMP assay with SNP incubation, LC/MS detection (Example 2A); format: cell-based
Outline: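 HEK293 cells with endogenous sGC were pretreated 15 min at 37 °C with 0.5 mM IBMX, then exposed 10 min at 37 °C to compound (added from 0.0001–30 μM solutions) plus SNP (from 10 μM solution). After 0.1 M HCl lysis, cGMP was quantified by LC/MS against a standard curve.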

[2] = target: T1, soluble guanylate cyclase (sGC); assay: sGC-HEK-cGMP assay, new protocol with DETA-NONOate, LC/MS detection (Example 2C); format: cell-based
[3] = HEK293 cells, 10 μM SNP, LC/MS detection, 100% = BAY 41-2272 at 10 μM, read-out: HEK assay Emax - unconstrained (%)
[4] = HEK293 cells, 10 μM SNP, LC/MS detection, top of curve not fitted to 100%, read-out: HEK assay EC50 - unconstrained
[5] = read-out: Absolute EC50 (uM) - binned
[6] = HEK293 cells, 10 μM SNP, LC/MS detection, top of curve fitted to 100%, read-out: HEK assay EC50 - constrained

T1 sequence (Q02153 whole entry): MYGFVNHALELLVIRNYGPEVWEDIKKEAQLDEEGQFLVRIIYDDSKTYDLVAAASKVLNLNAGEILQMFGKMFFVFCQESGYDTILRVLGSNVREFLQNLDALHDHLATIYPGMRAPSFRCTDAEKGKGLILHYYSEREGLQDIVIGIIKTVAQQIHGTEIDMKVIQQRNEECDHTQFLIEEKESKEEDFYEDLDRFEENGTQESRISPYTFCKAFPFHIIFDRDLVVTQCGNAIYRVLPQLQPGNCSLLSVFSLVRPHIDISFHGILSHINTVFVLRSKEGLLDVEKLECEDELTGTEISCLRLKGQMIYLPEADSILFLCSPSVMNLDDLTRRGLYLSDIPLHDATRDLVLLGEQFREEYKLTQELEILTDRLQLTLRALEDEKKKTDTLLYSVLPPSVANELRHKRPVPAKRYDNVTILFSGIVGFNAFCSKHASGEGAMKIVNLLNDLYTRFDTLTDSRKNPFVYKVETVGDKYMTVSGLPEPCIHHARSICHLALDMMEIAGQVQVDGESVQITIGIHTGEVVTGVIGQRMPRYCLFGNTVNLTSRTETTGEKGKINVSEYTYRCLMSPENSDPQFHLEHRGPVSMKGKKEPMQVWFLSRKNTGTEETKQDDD
T1 sequence (Q02108 whole entry): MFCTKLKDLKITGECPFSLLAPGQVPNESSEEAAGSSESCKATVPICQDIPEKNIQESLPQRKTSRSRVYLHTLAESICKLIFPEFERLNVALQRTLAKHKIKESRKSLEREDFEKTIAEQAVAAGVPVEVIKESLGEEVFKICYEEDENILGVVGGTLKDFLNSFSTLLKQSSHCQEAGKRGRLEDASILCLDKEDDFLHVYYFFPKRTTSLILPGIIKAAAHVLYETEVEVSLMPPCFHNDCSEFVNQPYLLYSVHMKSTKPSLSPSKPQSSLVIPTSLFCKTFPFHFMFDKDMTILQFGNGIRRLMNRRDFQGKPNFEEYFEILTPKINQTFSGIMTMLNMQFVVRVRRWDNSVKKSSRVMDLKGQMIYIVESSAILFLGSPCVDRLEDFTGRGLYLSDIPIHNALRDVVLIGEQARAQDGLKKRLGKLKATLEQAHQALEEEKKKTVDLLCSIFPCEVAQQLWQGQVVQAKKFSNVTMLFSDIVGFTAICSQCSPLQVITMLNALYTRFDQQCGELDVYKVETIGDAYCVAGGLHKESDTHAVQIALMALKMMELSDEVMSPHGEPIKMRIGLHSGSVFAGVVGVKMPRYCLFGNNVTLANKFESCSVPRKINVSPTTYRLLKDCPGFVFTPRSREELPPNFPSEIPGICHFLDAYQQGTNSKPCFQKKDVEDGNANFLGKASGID

O=C(O)[C@@H]1CCCC[C@H]1Nc1nc(-c2cc(-c3ccon3)n(Cc3ccccc3F)n2)ncc1F [Compound I-198]
Emax [1, 3]: 40 to 60%
EC50 [1, 4]: 1 to 100 nM
EC50 [2, 5]: < 0.1 µM

CC(C)N(CC(=O)O)c1nc(-c2cc(-c3ccon3)n(Cc3ccccc3F)n2)ncc1F [Compound I-204]
EC50 [1, 6]: > 10000 nM
EC50 [2, 5]: 0.101 to 1 µM

O=C(O)C(F)(F)CNc1nc(-c2cc(-c3ccon3)n(Cc3ccccc3F)n2)ncc1F [Compound I-206]
EC50 [1, 6]: > 10000 nM
EC50 [2, 5]: < 0.1 µM

CCOC(=O)CN1CCCN1c1nc(-c2cc(-c3ccon3)n(Cc3ccccc3F)n2)ncc1F [Compound I-213]
Emax [1, 3]: > 120%
EC50 [1, 4]: 500 to 1000 nM
EC50 [2, 5]: < 0.1 µM

O=C(O)CCCNc1nc(-c2cc(-c3ccon3)n(Cc3ccccc3F)n2)ncc1F [Compound I-214]
Emax [1, 3]: > 120%
EC50 [1, 4]: 100 to 500 nM
EC50 [2, 5]: < 0.1 µM

CC(C)[C@H](C(=O)O)N(C)c1nc(-c2cc(-c3ccon3)n(Cc3ccccc3F)n2)ncc1F [Compound I-219]
Emax [1, 3]: 20 to 40%
EC50 [1, 4]: > 10000 nM
EC50 [2, 5]: < 0.1 µM

O=C(O)CC1CCN(c2nc(-c3cc(-c4ccon4)n(Cc4ccccc4F)n3)ncc2F)CC1 [Compound I-230]
Emax [1, 3]: 40 to 60%
EC50 [1, 4]: > 10000 nM
EC50 [2, 5]: < 0.1 µM

CC(C)[C@@H](C(=O)O)N(C)c1nc(-c2cc(-c3ncco3)n(Cc3ccccc3F)n2)ncc1F [Compound I-236]
Emax [1, 3]: 100 to 120%
EC50 [1, 4]: 100 to 500 nM
EC50 [2, 5]: < 0.1 µM

CN(c1nc(-c2cc(-c3ccon3)n(Cc3ccccc3F)n2)ncc1F)[C@H](C(=O)O)C1CC1 [Compound I-239]
Emax [1, 3]: 60 to 80%
EC50 [1, 4]: 1 to 100 nM
EC50 [2, 5]: < 0.1 µM

O=C(O)CC1(Nc2nc(-c3cc(-c4ccon4)n(Cc4ccccc4F)n3)ncc2F)CCOCC1 [Compound I-245]
EC50 [1, 6]: 100 to 500 nM
EC50 [2, 5]: 0.101 to 1 µM

CN(CC1(C(=O)O)CC1)c1nc(-c2cc(-c3ccon3)n(Cc3ccccc3F)n2)ncc1F [Compound I-250]
Emax [1, 3]: 80 to 100%
EC50 [1, 4]: 1 to 100 nM
EC50 [2, 5]: < 0.1 µM

CN(c1nc(-c2cc(-c3ccon3)n(Cc3ccccc3F)n2)ncc1F)[C@@H](Cc1ccccn1)C(=O)O [Compound I-257]
EC50 [1, 6]: > 10000 nM
EC50 [2, 5]: > 1 µM

CC(C)[C@H](Nc1nc(-c2cc(-c3ccon3)n(Cc3ccccc3F)n2)ncc1F)C(=O)NS(=O)(=O)C1CC1 [Compound I-258]
Emax [1, 3]: 100 to 120%
EC50 [1, 4]: 1000 to 5000 nM
EC50 [2, 5]: 0.101 to 1 µM

O=C(O)C1(O)CCN(c2nc(-c3cc(-c4ccon4)n(Cc4ccccc4F)n3)ncc2F)CC1 [Compound I-300]
Emax [1, 3]: 60 to 80%
EC50 [1, 4]: 500 to 1000 nM
EC50 [2, 5]: 0.101 to 1 µM

C[C@H]1CCCN(c2nc(-c3cc(-c4ccon4)n(Cc4cccc(F)c4F)n3)ncc2F)[C@H]1C(=O)O [Compound I-305]
Emax [1, 3]: 0 to 10%
EC50 [1, 4]: > 10000 nM
EC50 [2, 5]: < 0.1 µM

CN(c1nc(-c2cc(-c3ccon3)n(Cc3ccccc3F)n2)ncc1F)C12CC(C(=O)O)(C1)C2 [Compound I-307]
Emax [1, 3]: 100 to 120%
EC50 [1, 4]: 1000 to 5000 nM
EC50 [2, 5]: 0.101 to 1 µM

CN(CC(=O)NS(=O)(=O)c1ccccc1)c1nc(-c2cc(-c3ccon3)n(Cc3ccccc3F)n2)ncc1F [Compound I-361]
Emax [1, 3]: 0 to 10%
EC50 [1, 4]: 100 to 500 nM
EC50 [2, 5]: < 0.1 µM

Oc1noc2c1CCN(c1nc(-c3cc(-c4ccon4)n(Cc4ccccc4F)n3)ncc1F)C2 [Compound I-364]
EC50 [1]: 1 to 100 nM
Emax ([1]; HEK293, read-out: HEK assay Emax - unconstrained (%)): 80 to 100%
EC50 [2]: < 0.1 µM

O=C(O)[C@@H]1[C@H]2CC[C@H](C2)N1c1nc(-c2cc(-c3ccon3)n(Cc3ccccc3F)n2)ncc1F [Compound I-365]
Emax [1, 3]: 80 to 100%
EC50 [1, 4]: 1000 to 5000 nM
EC50 [2, 5]: 0.101 to 1 µM

NS(=O)(=O)C1CCN(c2nc(-c3cc(-c4ccon4)n(Cc4ccccc4F)n3)ncc2F)CC1 [Compound I-366]
Emax [1, 3]: 40 to 60%
EC50 [1, 4]: 1 to 100 nM
EC50 [2, 5]: < 0.1 µM

CNS(=O)(=O)CCNc1nc(-c2cc(-c3ccon3)n(Cc3ccccc3F)n2)ncc1F [Compound I-367]
Emax [1, 3]: 60 to 80%
EC50 [1, 4]: 1 to 100 nM
EC50 [2, 5]: < 0.1 µM
